Reference: US20140128333A1, “Compounds, Compositions, and Methods for Decreasing Intestinal Glucose Uptake and Inducing Incretin Release” (MAQUI NEW LIFE S.A., priority 2012, published 2014)
Entries after “also recorded” stand apart in the source; their conditions may differ.

How the values were obtained:
SGLT-1 = biological target: T1, SGLT-1 (Mus musculus, UniProt Q8C3K6); experiment: Ussing chamber: sodium-coupled D-glucose transport in mouse jejunum (short circuit current); conditions: 50 μM delphinidin on mucosal side
T1 construct: Two sections of jejunum per animal were mounted in Ussing Chambers; from tissue; host or cells: jejunum of C57Bl/6J mice
T1 sequence (Q8C3K6 1-665): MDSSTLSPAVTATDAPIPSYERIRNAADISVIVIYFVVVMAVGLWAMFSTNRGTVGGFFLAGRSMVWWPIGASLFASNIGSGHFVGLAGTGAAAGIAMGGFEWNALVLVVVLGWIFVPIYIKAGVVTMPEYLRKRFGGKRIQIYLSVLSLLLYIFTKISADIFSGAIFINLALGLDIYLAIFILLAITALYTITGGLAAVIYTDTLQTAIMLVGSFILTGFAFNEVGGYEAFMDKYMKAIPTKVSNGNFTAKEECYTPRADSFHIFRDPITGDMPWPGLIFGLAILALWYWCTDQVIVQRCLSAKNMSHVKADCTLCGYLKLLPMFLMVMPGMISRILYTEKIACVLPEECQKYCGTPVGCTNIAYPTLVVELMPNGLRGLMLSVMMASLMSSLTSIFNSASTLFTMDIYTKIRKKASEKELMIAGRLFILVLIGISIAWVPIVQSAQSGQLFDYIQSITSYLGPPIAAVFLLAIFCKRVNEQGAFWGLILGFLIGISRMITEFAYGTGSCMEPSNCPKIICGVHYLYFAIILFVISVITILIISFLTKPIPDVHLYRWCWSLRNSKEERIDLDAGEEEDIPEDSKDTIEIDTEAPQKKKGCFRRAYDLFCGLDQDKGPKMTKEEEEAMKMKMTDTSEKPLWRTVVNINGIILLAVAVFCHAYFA
From the text: C57B1/6J mice were obtained from The Jackson Laboratory (Bar Harbor, Me., USA). The mice were maintained at the Specific Pathogen Free mouse facility of the Centro de Estudios Científicos (CECS), Valdivia, Chile and prior to the experiments they had free access to water and food. Animals were killed by cervical dislocation according to local Institutional Animal Care and Use Committee (IACUC) regulations. The jejunum was isolated, open longitudinally along the mesenteric border and rinsed with phosphate buffered saline (PBS).
Two sections of jejunum per animal were mounted in Ussing Chambers and maintained in Ussing buffer (120 Mm NaCl, 25 mM NaHCO3, KH2PO4 3.3 mM, 0.8 mM K2HPO4, 1.2 mM MgCl2 and 1.2 mM CaCl2) supplemented with 10 mM D-glucose in the serosal side. […] The effect of delphinidin on sodium-coupled transport of glucose was determined by application of this molecule at a concentration of 50 μM in the mucosal side of the preparation. The transepithelial electrical potential difference (VM), defined as the potential side compared to serous mucus preparation was recorded continuously under current clamp configuration using a VCC MC2 amplifier (Physiological Instruments). The values of short circuit current (Isc) were calculated from experimental data using Ohm's law. The results are expressed as the intensity of the Isc (μA/cm^2). […]

GPR40 receptor = biological target: T2, GPR40 receptor (Homo sapiens, UniProt O14842); experiment: Measurement of calcium influx in Fura-2/AM-loaded HT-29 cells; assay type: cell-based; conditions: 100 μM
T2 construct: To assess and ensure the participation of GPR40 on calcium mobilization induced by delphinidin and cyanidin, Fura-2/AM-loaded HT-29 cells; endogenous in cells; host or cells: HT-29 cells
Description: HT-29 cells were suspended in HBSS at a concentration of 20×10^6 cells/ml and incubated with 1 μM Fura-2/AM (Molecular Probes) for 30 min at 37° C. The cells were then washed twice, divided into 2×10^6 cells/ml aliquots and maintained at 4° C. in the dark until use. Cells were then pelleted by centrifugation at 1200 rpm for 6 min and re-suspended in 2 ml HEPES buffer [20 mM HEPES, pH 7.2; 140 mM NaCl; 10 mM glucose; 1 mM KCl; 1 mM Ca^2+ chloride (CaCl2); and 1 mM MgCl2].
The influx of Ca^2+ was recorded as the 340:380 excitation ratio at 509 nm emission in a LS55 thermoregulated spectrofluorimeter (Perkin-Elmer, Mass., USA).

GLP-1 mRNA expression = GLP-1 mRNA expression in NCI-H716 cells by qRT-PCR; assay type: cell-based; conditions: delphinidin 10, 50 or 100 μM tested, increase at 50 and 100 μM, 24 h
Description: Total RNA was isolated from […] cells using the RNeasy Plus Mini Kit according to the manufacturer's instructions. Approximately 1 μg of total RNA, 0.5 μg of oligo (dT)18 primer, 10 mM dNTPs and 200 U of reverse transcriptase were used for each cDNA synthesis reaction. PCR amplifications were performed using the Brilliant II SYBR Green QPCR Master Mix (Stratagene) according to the manufacturer's instructions. All reactions were carried out using an Mx300p thermal cycler (Stratagene, Calif., USA). GLP-1 specific primers were used.

GLP-1 production = GLP-1 production in NCI-H716 cells by flow cytometry; assay type: cell-based; conditions: 50 μM delphinidin, 48 hrs, Brefeldin A
Description: After two washes in PBS, the cells were stained with mouse anti-GLP-1 antibody for 1 hr at 4° C. The cells were washed twice with PBS, incubated for 1 hr at 4° C. with anti-mouse Alexa 488 (1:200 dilution) and finally washed twice with PBS. The cells were assessed by flow cytometry on a FACSCanto II (Becton Dickinson).

T2 sequence (O14842 whole entry): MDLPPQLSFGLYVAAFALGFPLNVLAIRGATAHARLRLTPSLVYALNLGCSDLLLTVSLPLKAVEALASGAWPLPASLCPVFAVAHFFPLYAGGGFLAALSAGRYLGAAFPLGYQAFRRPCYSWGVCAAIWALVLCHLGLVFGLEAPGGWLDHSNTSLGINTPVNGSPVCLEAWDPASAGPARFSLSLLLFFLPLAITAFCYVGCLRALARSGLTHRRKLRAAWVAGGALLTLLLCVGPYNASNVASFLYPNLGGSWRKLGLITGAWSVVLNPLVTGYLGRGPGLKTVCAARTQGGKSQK

SMILES: Oc1cc(O)c2cc(O)c(-c3cc(O)c(O)c(O)c3)[o+]c2c1 [Delphinidin, 2-(3,4,5-trihydroxyphenyl)chromenylium-3,5,7-triol]
- decrease of sodium current (Isc) induced by 10 mM D-glucose / inhibition of glucose transport by jejunal mucosa (SGLT-1; n=4): about 40%
- decrease of sodium current (Isc) induced by 10 mM D-glucose / inhibition of glucose transport by jejunal mucosa (SGLT-1; n=4, listed as delphinidin): approximately 60%
- calcium fluxes (340/380 ratio) in HT-29 cells (GPR40 receptor): induces calcium fluxes
- expression of GLP-1 mRNA with respect to control (GLP-1 mRNA expression): induces; also recorded: increased
- amount of GLP-1 compared to control cells (GLP-1 production): induced an increase
